From patent publication US9643930B2, “Substituted indazole derivatives as in vitro MAO-B inhibitors” (“NTZ LAB” LTD., priority 2013, dated 2017)
Like-named read-outs stand apart in the source and are kept apart here.

Assays:
rat MAO-A = target: T1, rat MAO-A (Rattus norvegicus, UniProt P21396); assay: Rat MAO-A assay (Amplex Red fluorescence, rat liver mitochondria pre-treated with deprenyl); assay type: biochemical; details: for inhibition at 10 µM: read-out: rat MAO-A (rat liver mitochondria) % inhibition at 10 μM
T1 construct: from tissue; host or cells: rat liver mitochondria (male Sprague-Dawley rats)
T1 sequence (P21396 1-526): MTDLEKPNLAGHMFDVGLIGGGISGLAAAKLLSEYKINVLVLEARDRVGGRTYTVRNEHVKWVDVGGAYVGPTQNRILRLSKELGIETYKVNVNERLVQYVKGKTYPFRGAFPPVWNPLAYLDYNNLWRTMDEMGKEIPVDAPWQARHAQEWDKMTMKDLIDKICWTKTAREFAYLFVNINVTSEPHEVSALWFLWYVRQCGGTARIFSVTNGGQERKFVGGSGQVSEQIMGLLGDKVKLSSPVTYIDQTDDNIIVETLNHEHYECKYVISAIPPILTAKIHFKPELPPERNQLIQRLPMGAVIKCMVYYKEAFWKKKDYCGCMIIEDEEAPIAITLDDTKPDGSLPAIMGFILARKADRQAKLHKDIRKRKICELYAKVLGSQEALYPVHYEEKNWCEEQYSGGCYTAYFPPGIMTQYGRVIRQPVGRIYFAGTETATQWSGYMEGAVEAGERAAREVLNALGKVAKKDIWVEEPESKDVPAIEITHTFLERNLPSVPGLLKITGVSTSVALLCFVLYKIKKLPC

human MAO-B [1] = target: T2, human MAO-B (Homo sapiens, UniProt P27338); assay: Human MAO-B assay (recombinant enzyme, Amplex Red fluorescence); assay type: biochemical; set-up: purchased Sigma-Aldrich M7441; host or cells: baculovirus-infected insect cells (microsomal product); details: p-tyramine 150 μM
T2 sequence (P27338 1-520): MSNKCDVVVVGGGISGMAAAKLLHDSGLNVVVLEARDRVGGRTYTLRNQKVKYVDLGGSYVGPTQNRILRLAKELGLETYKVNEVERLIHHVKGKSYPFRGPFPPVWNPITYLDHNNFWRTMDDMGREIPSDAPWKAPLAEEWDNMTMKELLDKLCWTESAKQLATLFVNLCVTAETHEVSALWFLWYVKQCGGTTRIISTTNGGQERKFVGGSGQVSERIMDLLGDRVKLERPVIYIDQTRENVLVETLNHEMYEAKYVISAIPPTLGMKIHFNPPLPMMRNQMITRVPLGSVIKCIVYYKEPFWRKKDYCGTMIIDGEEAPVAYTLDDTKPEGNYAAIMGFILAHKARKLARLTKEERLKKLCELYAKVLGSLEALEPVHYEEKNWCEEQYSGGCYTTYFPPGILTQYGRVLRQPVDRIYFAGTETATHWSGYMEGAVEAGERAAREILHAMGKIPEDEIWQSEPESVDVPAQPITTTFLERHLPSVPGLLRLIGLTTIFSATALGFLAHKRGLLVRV

human MAO-A = target: T3, human MAO-A (Homo sapiens, UniProt P21397); assay: Human MAO-A assay (recombinant enzyme, Amplex Red fluorescence); details: for inhibition at 10 µM: read-out: human MAO-A % inhibition at 10 μM
T3 sequence (P21397 1-527): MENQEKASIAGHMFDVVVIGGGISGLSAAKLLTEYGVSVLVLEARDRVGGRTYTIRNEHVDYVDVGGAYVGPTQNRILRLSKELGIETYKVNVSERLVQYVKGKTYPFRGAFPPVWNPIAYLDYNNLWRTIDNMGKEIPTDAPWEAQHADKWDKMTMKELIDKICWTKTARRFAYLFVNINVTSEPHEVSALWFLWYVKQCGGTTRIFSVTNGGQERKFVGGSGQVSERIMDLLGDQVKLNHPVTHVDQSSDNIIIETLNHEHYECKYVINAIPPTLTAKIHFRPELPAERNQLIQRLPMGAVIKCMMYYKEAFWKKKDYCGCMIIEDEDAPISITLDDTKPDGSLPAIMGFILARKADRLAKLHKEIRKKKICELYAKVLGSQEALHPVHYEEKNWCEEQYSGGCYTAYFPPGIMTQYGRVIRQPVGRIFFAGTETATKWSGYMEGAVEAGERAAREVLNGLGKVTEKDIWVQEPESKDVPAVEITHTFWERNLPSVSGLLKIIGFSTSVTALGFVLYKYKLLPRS

rat MAO-B = target: T4, rat MAO-B (Rattus norvegicus, UniProt P19643); assay: Rat MAO-B assay (Amplex Red fluorescence, rat liver mitochondria pre-treated with clorgyline 30 nM); assay type: biochemical; details: rat liver mitochondria pre-treated with clorgyline 30 nM; read-out: rat MAO-B (rat liver mitochondria) IC50
T4 construct: from tissue; host or cells: rat liver mitochondria (male Sprague-Dawley rats)
T4 sequence (P19643 1-520): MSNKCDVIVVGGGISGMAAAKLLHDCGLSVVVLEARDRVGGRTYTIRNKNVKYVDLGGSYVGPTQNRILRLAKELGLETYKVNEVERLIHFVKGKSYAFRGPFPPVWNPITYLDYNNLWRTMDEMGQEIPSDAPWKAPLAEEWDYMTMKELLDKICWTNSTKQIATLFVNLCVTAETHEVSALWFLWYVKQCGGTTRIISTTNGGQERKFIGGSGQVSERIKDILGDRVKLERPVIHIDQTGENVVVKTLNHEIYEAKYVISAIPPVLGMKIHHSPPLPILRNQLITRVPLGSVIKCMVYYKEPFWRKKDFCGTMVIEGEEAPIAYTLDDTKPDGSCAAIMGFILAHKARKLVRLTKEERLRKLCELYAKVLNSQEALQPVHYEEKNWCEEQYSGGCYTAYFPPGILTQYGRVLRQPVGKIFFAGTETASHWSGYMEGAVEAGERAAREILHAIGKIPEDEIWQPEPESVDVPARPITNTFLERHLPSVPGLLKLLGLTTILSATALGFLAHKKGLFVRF

human MAO-B [2] = target: T2, human MAO-B; assay: Assay for mode of MAO-B inhibition (substrate-dependent kinetics, Lineweaver-Burk plots); assay type: biochemical; set-up: purchased Sigma-Aldrich M7441; host or cells: baculovirus-infected insect cells (microsomal product); details: p-tyramine 0.05-[…]; inhibitor 0.1-10 nM; n=2
[3] = Storage stability (physicochemical properties, Table 1); details: specified storage temperature (room temperature)
[4] = Solubility in organic solvents and in water (physicochemical properties, Table 1); details: for solubility: water, aqueous buffer
human MAO-B [5] = target: T2, human MAO-B; assay: MAO-B reactivation experiment (time-dependent inhibition, reversibility); details: compound at IC80; p-tyramine raised from 10 μM to 1.0 mM; monitored 5 hours
[6] = rat liver mitochondria, substrate p-tyramine, read-out: rat MAO-A (rat liver mitochondria) IC50

IC50 (rat MAO-A; [6]) [nM] | inhibition at 10 µM (rat MAO-A; rat liver mitochondria) [%] | IC50 (human MAO-B [1]) [nM] | inhibition at 10 µM (human MAO-A) [%] | IC50 (human MAO-A; read-out: human MAO-A IC50, recombinant human enzyme, p-tyramine 150 μM) [nM] | IC50 (rat MAO-B) [nM] | melting point [°C] | IC50 (human MAO-A) [nM] | Compound | IC50 (rat MAO-A) [nM] | mode of MAO-B inhibition (Lineweaver-Burk plots) (human MAO-B [2]) | Stability [3] | Solubility in water ([4]; hot water) | Solubilty inorganic solvents ([4]; in DMSO, DMF, MeOH, EtOH, i-PrOH, n-BuOH, t-BuOH, acetonitrile (Soluble)) | Solubilty inorganic solvents ([4]; in petroleum ether, Et2O and n-hexane (Insoluble)) | solubility ([4]; at 22.5° C., pH 7.4) [µg/mL] | solubility ([4]; at 90° C., pH 7.4, pH 1.0) [µg/mL] | reversibility of MAO-B inhibition (enzyme reactivation after raising substrate) (human MAO-B [5])
> 10000 | 43 | 37.5 ± 7.3 | 81 | 3000 ± 122 | 385 ± 9 | 306.6 to 307.3 |  | O=C(Nc1ccc(Cl)c(O)c1)c1ccc2[nH]ncc2c1 [Example 6, N-(4-chloro-3-hydroxyphenyl)-1H-indazole-5-carboxamide] |  |  |  |  |  |  |  |  | 
> 10000 | 9 | 185 ± 21 | 9 |  | 1400 ± 56 | 258.3 to 261.3 | > 10000 | COc1ccc(NC(=O)c2ccc3[nH]ncc3c2)cc1OC [Example 7, N-(3,4-dimethoxyphenyl)-1H-indazole-5-carboxamide] |  |  |  |  |  |  |  |  | 
 |  |  |  |  |  |  |  | C[C@H](NCc1ccc(OCc2cccc(F)c2)cc1)C(N)=O [safinamide, reference compound] |  |  |  |  |  |  |  |  | The same result was observed

Compound | IC50 (rat MAO-A; [6]) [nM] | inhibition at 10 µM (rat MAO-A; rat liver mitochondria) [%] | IC50 (human MAO-B [1]) [nM] | inhibition at 10 µM (human MAO-A) [%] | IC50 (human MAO-A; read-out: human MAO-A IC50, recombinant human enzyme, p-tyramine 150 μM) [nM] | IC50 (rat MAO-B) [nM] | melting point [°C] | IC50 (human MAO-A) [nM] | IC50 (rat MAO-A) [nM] | mode of MAO-B inhibition (Lineweaver-Burk plots) (human MAO-B [2]) | Stability [3] | Solubility in water ([4]; hot water) | Solubilty inorganic solvents ([4]; in DMSO, DMF, MeOH, EtOH, i-PrOH, n-BuOH, t-BuOH, acetonitrile (Soluble)) | Solubilty inorganic solvents ([4]; in petroleum ether, Et2O and n-hexane (Insoluble)) | solubility ([4]; at 22.5° C., pH 7.4) [µg/mL] | solubility ([4]; at 90° C., pH 7.4, pH 1.0) [µg/mL] | reversibility of MAO-B inhibition (enzyme reactivation after raising substrate) (human MAO-B [5])
Cn1ncc2cc(C(=O)Nc3ccc(Cl)c(Cl)c3)ccc21 [Example 13] |  | 42 |  | 37 |  | 1.32 ± 0.09 |  |  | > 10000 | linear and intersected at the y-axis with the plot for the uninhibited enzyme | Stable under specified storage temperature (room | Very slightly soluble in hot water | Soluble (0.01-0.03 mL per 1.0 mg) in DMSO, DMF, | Insoluble (>10 mL per 1.0 mg) in petroleum ether, | < 0.01 | < 0.035 | reversible MAO-B inhibitors
